The values that follow are results of earlier work, collected in US20110052685A1, “GASTRIC RETENTIVE PHARMACEUTICAL COMPOSITIONS FOR IMMEDIATE AND EXTENDED RELEASE OF ACETAMINOPHEN” (DEPOMED, INC., priority 2009, published 2011).

Molecules are shown by their SMILES.

For the molecule `CC(=O)Nc1ccc(O)cc1` [acetaminophen, N-(4-hydroxyphenyl)acetamine], the Half-life entry (elimination, from Rawlins et al., 1977) is “(2.7) hr”. Further, under “from Rawlins et al., 1977”, the “1st Order Elimination Constant K” value is 0.257 h⁻¹, the “Oral Bioavaiability F” value was 0.89 and the “Volume of Distribution V” value is 78800 mL. Besides, the “Absorption Half-life” value (oral immediate release, fed mode) is recorded as “(0.76) hr”. Also, the “1st Order Absorption Constant (under fed mode - with food) ka” value (oral immediate release, from Divoll et al., 1982) was 0.912 h⁻¹.
